Experimental data from patent US20250387360A1, “Methods and Compositions for Treatment of Addiction” (University of Connecticut, priority 2024, published 2025).
Entries after “also recorded” stand apart in the source; their conditions may differ.

Columns and labels:
Type in all cases: in vivo, mouse
[1] = tested on: gene expression in the amygdala; test: Bulk RNA-seq of amygdala (DESeq2, IPA)
Protocol: Total RNA was isolated from amygdala samples using the Direct-zol RNA Microprep Kit (Zymoresearch, CA, U.S.A). Quantification of total RNA and assessment of its purity ratios were performed using the NanoDrop 2000 spectrophotometer (Thermo Fisher Scientific, MA, U.S.A, RRID:SCR_018042).
Total RNA libraries were prepared for transcriptome sequencing using the Zymo-Seq RiboFree Stranded Total RNA library preparation kit (Zymo Research, CA, U.S.A) following the manufacturer's instructions. Further, rRNAs were depleted as part of the sample preparation process. Libraries were validated for length and adapter dimer removal using the Agilent TapeStation 4200 D1000 High Sensitivity assay (Agilent Technologies, CA, U.S.A, RRID:SCR_019398). Subsequent quantification and normalization were carried out using the dsDNA High Sensitivity Assay for Qubit 3.0 (Life Technologies, CA, U.S.A, RRID:SCR_020311). Sample libraries were then prepared for Illumina sequencing following the manufacturer's protocol (Illumina, CA, U.S.A). All the individual samples were consolidated into a single sequencing pool, with proportions targeting 30M reads/sample, and sequenced on the Illumina NovaSeq 6000 platform (Illumina, CA, U.S.A, RRID:SCR_016387).
Raw reads were subjected to adaptor removal and quality control including filtering of low-quality reads. Filtered reads were mapped to the mouse reference genome using STAR (Spliced Transcripts Alignment to a Reference, RRID:SCR_004463). Gene expression level was estimated by transcripts per million of transcript sequences. Principal component analysis (PCA) was performed to visualize overall gene expression differences between compared groups in several major principal components. The analysis of differential gene expression (DEG) was performed using the DESeq2 (RRID:SCR_015687) package for RNA-Seq data. […] The Benjamini-Hochberg procedure, also referred to as the false discovery rate (FDR) method, was applied to correct p-values for multiple testing. We utilized Ingenuity Pathway Analysis (IPA, RRID:SCR_008653) to predict pathways associated with differentially expressed genes and employed Gene Set Enrichment Analysis (GSEA, RRID:SCR_003199) to visualize the outcomes in a heatmap. Right tailed Fisher's exact test was performed in the IPA for identifying significant canonical pathways.
To gain a molecular understanding of the effects of sodium valerate supplementation on brain function, bulk RNA sequencing (RNA-seq) analysis was performed on amygdala tissue of mice that underwent the DID paradigm after sodium valerate or NaCl (n=7 mice/group) supplementation. […] DESeq2 identified a total of 301 DEG at the adjusted p value <0.25, 126 genes at the adjusted p value <0.10, and 75 genes at the adjusted p value <0.05. […] Among these genes, the top five protein coding genes with the highest expression in sodium valerate-supplemented mice are Kcna10 (potassium voltage-gated channel, shaker-related subfamily, member 10), Pln (phospholamban), H60C (histocompatibility antigen 60c), Idi1 (isopentenyl-diphosphate delta isomerase, pseudogene 3) and Snord34 (small nucleolar RNA, C/D box 34). […] PTGS2 is a prostanoids producer that responds to inflammation. Its downregulation in the sodium valerate supplemented group (log2Fold change: −0.65; adjusted p=0.0002) indicates an anti-inflammatory effect of valerate. […] As SCFAs may function in the brain through G protein-coupled receptors (GPCRs), gene expression levels of 85 GPRs were examined in the RNAseq data. […] IPA was performed to identify changes to the molecular signaling pathways and to comparatively assess the sodium valerate effects in the amygdala. […]

gut microbiome = test: 16S rRNA sequencing of stool and gut-brain module analysis; conditions: stool
Protocol: Microbial genomic DNA extraction from mouse stool samples was carried out using the Quick-DNA Fecal/Soil Microbe 96 Kit (Zymo Research, CA, U.S.A) following the manufacturer's protocols. The hypervariable region V4 of the bacterial 16S rRNA gene, 515F (5′-[sequence]-3′ (SEQ ID NO: 1)) and 806R (5′-[sequence]-3′ (SEQ ID NO: 2)) was amplified and sequenced on the Illumina MiSeq platform (2×250 bp) (Illumina, CA, U.S.A). The raw sequencing reads were processed via the DADA2 V1.16 (RRID:SCR_023519) data processing pipeline to generate amplicon sequence variants (ASVs). Taxonomic assignments were made using the Silva database V138.1 (RRID:SCR_006423), with a classification confidence threshold set at p<0.5 for assigning unclassified taxa at their respective taxonomical levels. PCR negative controls and extraction controls for DNA extraction and sequencing were included in the analysis. […] Sequencing reads from all the samples were rarified to 10,000 reads per sample. […] All of the microbiome analysis was done in R.
16S rRNA gene sequencing of stool samples collected before and after sodium valerate treatment (n=7 mice/group) was performed. […] Permutational multivariate analysis of variance (PERMANOVA) tests were performed on CLR-transformed data to test for beta-diversity differences between sodium valerate and NaCl-supplemented groups (n=14 mice/group).

[2] = tested on: acetylation of histone H3 and H4 in the amygdala; test: Histone H3 and H4 acetylation ELISA in amygdala; conditions: n=7 mice/group, vs NaCl
Protocol: Amygdala samples were thawed, and the histone fractions were prepared using a commercial histone extraction kit (Abcam, Cambridge, UK) following manufacturers instruction. The bulk acetylation of histone H3 and H4 was determined using commercial ELISA kits according to the manufacturer's instructions (Abcam, Cambridge, UK). The OD of the samples was measured using a 96 well plate reader at 450 nm (iMark™ Microplate Absorbance Reader; Biorad, CA, USA). The amounts of acetyl histone H3 and H4 were measured by comparing to the kit supplied standards.
The total acetylation levels of histone H3 and H4 were quantified in the amygdala of mice subjected to the DID paradigm following supplementation with sodium valerate or NaCl (n=7 mice/group).

male mice = test: Dosage dependent, short-term sodium valerate in 4-day DID regimen; conditions: day 1 to day 4, n=7/group, vs vehicle
Protocol: Different dosages of sodium valerate ranging from 20 mM to 200 mM were tested in male mice (n=7/group, 6-8 weeks old) using a 4-day DID regimen. Different dosages of sodium valerate were given through drinking water 30 min before the 2-hour drinking exposure at Day 1 and continued to day 4 except the drinking hours.
A standard 4-day drinking in the dark (DID) model was used to evaluate binge-like ethanol drinking patterns in mice. A 20% v/v ethanol solution was prepared by diluting 190-proof ethyl alcohol (Sigma, MO, U.S.A) with deionized water. During days 1-3, the water bottles were temporarily removed during the dark cycle of the mice, and the mice were provided with a tube containing the 20% v/v ethanol solution for a duration of two hours. On day four, the assessment of binge-like ethanol consumption took place, where the mice were given access to the 20% v/v ethanol solution for a period of four hours. The volume of fluid in the tube (read to the closest 100 μL) was measured immediately upon placement, and at two hours and four hours into the test. Following the completion of the four hours test, approximately 100 μL of blood was collected through cardiac puncture after CO2 euthanasia. Blood samples were subjected to centrifugation at 10,000 rpm for 10 minutes. […] The quantity of ethanol consumed was then calculated as grams per kilogram of the mouse's body weight. […]

female mice = test: 4-day DID regimen in young female mice; conditions: n=7/group, same DID protocol, vs vehicle control
Protocol: A standard 4-day drinking in the dark (DID) model was used to evaluate binge-like ethanol drinking patterns in mice. A 20% v/v ethanol solution was prepared by diluting 190-proof ethyl alcohol (Sigma, MO, U.S.A) with deionized water. During days 1-3, the water bottles were temporarily removed during the dark cycle of the mice, and the mice were provided with a tube containing the 20% v/v ethanol solution for a duration of two hours. On day four, the assessment of binge-like ethanol consumption took place, where the mice were given access to the 20% v/v ethanol solution for a period of four hours. The volume of fluid in the tube (read to the closest 100 μL) was measured immediately upon placement, and at two hours and four hours into the test. Following the completion of the four hours test, approximately 100 μL of blood was collected through cardiac puncture after CO2 euthanasia. Blood samples were subjected to centrifugation at 10,000 rpm for 10 minutes. The determination of blood ethanol concentrations (BEC) was performed using an Analox AMI Analyzer (Analox Instruments, MA, U.S.A). The quantity of ethanol consumed was then calculated as grams per kilogram of the mouse's body weight.

CCCCC(=O)[O-].[Na+] [sodium valerate]
MAPKs at the RNA level [1]: downregulated | six mitochondrial genes encoding subunits of NADH dehydrogenase (Complex I) [1]: consistently upregulated | downregulated genes among the 75 significant DEG ([1]; adjusted p <0.05): 28 | upregulated genes among the 75 significant DEG ([1]; adjusted p <0.05): 47 | PTGS2 expression, log2Fold change ([1]; adjusted p=0.0002): −0.65 | GPR158 expression, log2Fold change ([1]; unadjusted p<0.01): −0.26 | Gpr56 expression, log2Fold change ([1]; unadjusted p<0.01): 0.28 | abundance of Ileibacterium genera (gut microbiome; 10 days supplementation, adjusted p=0.24, unadjusted p=0.004): increase in abundance | beta-diversity between sodium valerate and NaCl groups (gut microbiome; after 10 days of supplementation, PERMANOVA/PCA): increased dissimilarity | Dubosiella abundance, log2Fold change (gut microbiome; after 10 days supplementation, DESeq2, adjusted p=9.46E-5): 7.84 | increase in H3 acetylation in the amygdala [2]: not statistically significant | H4 acetylation in the amygdala ([2]; p<0.01): significantly increased | alcohol intake, 100 mM (male mice; 100 mM in drinking water 30 min before alcohol exposure): significantly decreased; also recorded: reduce drinking significantly | alcohol intake, 200 mM (male mice; 200 mM in drinking water 30 min before alcohol exposure): significantly decreased; also recorded: reduce drinking significantly | alcohol binge drinking in female mice (female mice): significantly reduced | blood ethanol levels in female mice (female mice): significantly reduced
